Assay results as given in ChEMBL document CHEMBL1201862, “PubChem BioAssay data set” (2004).
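Following 48 hours of exposure in 96-well plates, responses at five concentrations were used to interpolate endpoints linearly. GI50: concentration for 50% inhibition of growth.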 Calls of active or inactive are those of the source. No stated cut-off is given here; in the data, active = GI50 up to about 1.1 µM and inactive = higher.

Tests used:
Test in all cases: NCI-60 cell line screen, 48 h
SK-MEL-28 = test system: SK-MEL-28
NCI-H460 = test system: NCI-H460
OVCAR-4 = test system: OVCAR-4
NCI-H522 = test system: NCI-H522
SR = test system: SR
DU-145 = test system: DU-145
SF-539 = test system: SF-539
Hs-578T = test system: Hs-578T
MCF7 = test system: MCF7
CCRF-CEM = test system: CCRF-CEM
OVCAR-3 = test system: OVCAR-3
U-251 = test system: U-251
SF-268 = test system: SF-268
ACHN = test system: ACHN
KM12 = test system: KM12
Malme-3M = test system: Malme-3M
MDA-MB-231 = test system: MDA-MB-231
SK-MEL-5 = test system: SK-MEL-5
HT-29 = test system: HT-29
HOP-92 = test system: HOP-92

SMILES	GI50 (SK-MEL-28)	GI50 (NCI-H460)	GI50 (OVCAR-4)	GI50 (NCI-H522)	GI50 (SR)	GI50 (DU-145)	GI50 (SF-539)	GI50 (Hs-578T)	GI50 (MCF7)	GI50 (CCRF-CEM)	GI50 (OVCAR-3)	GI50 (U-251)	GI50 (SF-268)	GI50 (ACHN)	GI50 (KM12)	GI50 (Malme-3M)	GI50 (MDA-MB-231)	GI50 (SK-MEL-5)	GI50 (HT-29)	GI50 (HOP-92)
COC(=O)CCCC(=O)NC1=C(NCc2ccccc2)C(=O)c2ccccc2C1=O	> 100 µM (inactive)	52 µM (inactive)	47.9 µM (inactive)	70.5 µM (inactive)	46.5 µM (inactive)	> 100 µM (inactive)	36.4 µM (inactive)	> 100 µM (inactive)	30.3 µM (inactive)	36.3 µM (inactive)	23 µM (inactive)	> 100 µM (inactive)	> 100 µM (inactive)	73.8 µM (inactive)	53.7 µM (inactive)	15.5 µM (inactive)	50.1 µM (inactive)	–	–	–
O=C1c2cc3c(cc2CC12Cc1cc4c(cc1C2=O)CCC4)CCC3	> 100 µM (inactive)	> 100 µM (inactive)	–	> 100 µM (inactive)	> 100 µM (inactive)	> 100 µM (inactive)	> 100 µM (inactive)	> 100 µM (inactive)	> 100 µM (inactive)	> 100 µM (inactive)	> 100 µM (inactive)	> 100 µM (inactive)	> 100 µM (inactive)	> 100 µM (inactive)	> 100 µM (inactive)	> 100 µM (inactive)	> 100 µM (inactive)	> 100 µM (inactive)	> 100 µM (inactive)	–
O=C1C=Cc2cscc21	69.8 µM (inactive)	> 100 µM (inactive)	81.3 µM (inactive)	19.6 µM (inactive)	–	34.3 µM (inactive)	> 100 µM (inactive)	> 100 µM (inactive)	15.3 µM (inactive)	22.6 µM (inactive)	21.5 µM (inactive)	37.9 µM (inactive)	92.5 µM (inactive)	34.5 µM (inactive)	71.4 µM (inactive)	27 µM (inactive)	31.8 µM (inactive)	81.7 µM (inactive)	35.5 µM (inactive)	> 100 µM (inactive)
COc1cc(/C=C2\CCC(C)C3=C2NC(=S)NC3c2cc(OC)c(OC)c(OC)c2)cc(OC)c1OC (centres undefined)	30.4 µM (inactive)	–	69 µM (inactive)	–	25.2 µM (inactive)	56.8 µM (inactive)	–	37 µM (inactive)	35.7 µM (inactive)	25.2 µM (inactive)	–	46.8 µM (inactive)	73.6 µM (inactive)	92.7 µM (inactive)	32.3 µM (inactive)	–	34.5 µM (inactive)	23.2 µM (inactive)	60.1 µM (inactive)	> 100 µM (inactive)
O=C1NC(c2c(Cl)cccc2Cl)Nc2ccccc21 (centres undefined)	73.3 µM (inactive)	26.5 µM (inactive)	> 100 µM (inactive)	25.9 µM (inactive)	–	29.2 µM (inactive)	47.1 µM (inactive)	19.6 µM (inactive)	47.3 µM (inactive)	> 10 µM (inactive)	50.1 µM (inactive)	36.3 µM (inactive)	54.5 µM (inactive)	> 100 µM (inactive)	16.4 µM (inactive)	24.8 µM (inactive)	30.5 µM (inactive)	27 µM (inactive)	28.1 µM (inactive)	25.4 µM (inactive)
N#Cc1c2c(c(N)oc1=O)C(c1ccccc1)CC(=O)N2 (centres undefined)	> 100 µM (inactive)	> 100 µM (inactive)	> 100 µM (inactive)	> 100 µM (inactive)	–	> 100 µM (inactive)	> 100 µM (inactive)	> 100 µM (inactive)	> 100 µM (inactive)	> 100 µM (inactive)	> 100 µM (inactive)	> 100 µM (inactive)	> 100 µM (inactive)	> 100 µM (inactive)	> 100 µM (inactive)	> 100 µM (inactive)	> 100 µM (inactive)	> 100 µM (inactive)	> 100 µM (inactive)	> 100 µM (inactive)
CC1C2CC(CC(=O)N2)C1(C)C (centres undefined)	> 100 µM (inactive)	> 100 µM (inactive)	> 100 µM (inactive)	> 100 µM (inactive)	–	> 100 µM (inactive)	> 100 µM (inactive)	> 100 µM (inactive)	> 100 µM (inactive)	> 100 µM (inactive)	> 100 µM (inactive)	> 100 µM (inactive)	> 100 µM (inactive)	> 100 µM (inactive)	> 100 µM (inactive)	> 100 µM (inactive)	> 100 µM (inactive)	> 100 µM (inactive)	> 100 µM (inactive)	> 100 µM (inactive)
Nc1nc(Cl)c(N)c(NCC2(CO)CCC(CCc3ccccc3)C2)n1 (centres undefined)	14.6 µM (inactive)	12.6 µM (inactive)	17.3 µM (inactive)	10.4 µM (inactive)	–	21.4 µM (inactive)	15.5 µM (inactive)	21.1 µM (inactive)	7.59 µM (inactive)	6.21 µM (inactive)	18.7 µM (inactive)	14.4 µM (inactive)	15.8 µM (inactive)	18.7 µM (inactive)	13.4 µM (inactive)	1.83 µM (inactive)	17 µM (inactive)	0.033 µM (active)	13.3 µM (inactive)	19.3 µM (inactive)
O=C(c1ccccc1)n1[nH]c(=O)n(-c2ccc(Cl)cc2)c1=O	> 100 µM (inactive)	> 100 µM (inactive)	> 100 µM (inactive)	–	> 100 µM (inactive)	> 100 µM (inactive)	–	> 100 µM (inactive)	> 100 µM (inactive)	> 100 µM (inactive)	> 100 µM (inactive)	> 100 µM (inactive)	> 100 µM (inactive)	> 100 µM (inactive)	> 100 µM (inactive)	> 100 µM (inactive)	> 100 µM (inactive)	> 100 µM (inactive)	> 100 µM (inactive)	–
CCN(CC)c1ccc2cc(C(=O)Nc3ccccc3)c(=N)oc2c1	> 100 µM (inactive)	> 100 µM (inactive)	> 100 µM (inactive)	–	> 100 µM (inactive)	> 100 µM (inactive)	> 100 µM (inactive)	> 100 µM (inactive)	> 100 µM (inactive)	> 100 µM (inactive)	–	> 100 µM (inactive)	> 100 µM (inactive)	> 100 µM (inactive)	> 100 µM (inactive)	> 100 µM (inactive)	> 100 µM (inactive)	> 100 µM (inactive)	> 100 µM (inactive)	> 100 µM (inactive)
COc1cc(/C=C/c2ccccn2)cc(OC)c1OC	> 10 µM (inactive)	> 10 µM (inactive)	> 10 µM (inactive)	> 10 µM (inactive)	–	> 10 µM (inactive)	> 10 µM (inactive)	> 10 µM (inactive)	> 10 µM (inactive)	> 10 µM (inactive)	> 10 µM (inactive)	> 10 µM (inactive)	> 10 µM (inactive)	> 10 µM (inactive)	> 10 µM (inactive)	> 10 µM (inactive)	> 10 µM (inactive)	> 10 µM (inactive)	> 10 µM (inactive)	> 10 µM (inactive)
